Experimental data: EPA's ToxValDB 9.5 (doi:10.2903/j.efsa.2010.1716)
Values after ≈ are worked out from the molar mass of the structure shown.

What was measured:
Daphnia magna = conditions: chronic/long-term; duration: 21 days; reproduction
Tagia sp. = conditions: acute; duration: 14 days; mortality
Danio rerio = conditions: acute; duration: 96 hours; mortality
Oryctolagus sp. = conditions: reproduction developmental; body weight
Apis mellifera = conditions: acute; duration: 48 hours; oral; unspecified; mortality
Bibionidae = conditions: chronic/long-term; duration: 28 days; seedling emergence
Aphidius rhopalosiphi = test: LR50; higher = less toxic; conditions: not reported; mortality

For `c1ccc(CNc2ncnc3nc[nH]c23)cc1` [N-Benzyladenine], the NOEC (Daphnia magna) was 4 mg/L, the LC50 (Tagia sp.) was over 1000 mg/kg and the LC50 (Colinus virginianus; acute, oral, diet, mortality) was over 2880 mg/kg-day. For the same compound, the LD50 (Colinus virginianus; acute, oral, mortality) was 1600 mg/kg-day, the NOEC (Colinus virginianus; reproduction developmental) was 41.3 mg/kg-day and the LC50 (Danio rerio) was 32 µg/mL (≈ 142 µM). For the same compound, the LD50 (Rattus norvegicus; acute, oral, mortality) was 1580 mg/kg-day, the NOEL (Rattus norvegicus; reproduction developmental, body weight) was 30 mg/kg-day and the NOAEL (Oryctolagus sp.) was under 10 mg/kg-day. The LD50 (Apis mellifera) was over 58.7 µg/piece, the NOEC (Bibionidae) was 4.52 mg/L and the LR50 (Aphidius rhopalosiphi) was 36.2 g/ha.
